The source of these data is publication PMC4770715, “LIM kinase inhibitors disrupt mitotic microtubule organization and impair tumor cell proliferation” (Oncotarget, 2015).

Molecules are shown by their SMILES.

Common to all, as to assay: biochemical
Common to all, as to set-up: KINOMEscan active-site competition binding, percent of control (100 = no competition)
What all share (conditions): competition binding, percent control

Assay [1] has as its target PRKCH (Homo sapiens, UniProt P24723).
Assay [2] addresses CLK3 (Homo sapiens, UniProt P49761).
Assay [3] deals with T1, ERK4 (Homo sapiens, UniProt P31152).
T1 construct: gene MAPK4

Assay [4] concerns the target T2, SIK (Homo sapiens, UniProt P57059).
T2 construct: gene SIK1

Assay [5] deals with CSNK1G2 (Homo sapiens, UniProt P78368).
The target in assay [6] is EPHB2 (Homo sapiens, UniProt P29323).
The target of assay [7] is T3, ABL1(Q252H)-phosphorylated (Homo sapiens, UniProt P00519, Q252H).
T3 construct: phosphorylated

The target in assay [8] is EGFR(E746-A750del) (Homo sapiens, UniProt P00533, DEL746-750).
The target of assay [9] is PIK3CA(H1047L) (Homo sapiens, UniProt P42336, H1047L).
The target of assay [10] is AURKA (Homo sapiens, UniProt O14965).
Assay [11] deals with PRKX (Homo sapiens, UniProt P51817).
The target in assay [12] is SBK1 (Homo sapiens, UniProt Q52WX2).
In assay [13] the target is CSNK2A1 (Homo sapiens, UniProt P68400).
The target of assay [14] is RIPK1 (Homo sapiens, UniProt Q13546).
The target of assay [15] is MYO3B (Homo sapiens, UniProt Q8WXR4).
Assay [16] has as its target T4, PYK2 (Homo sapiens, UniProt Q14289).
T4 construct: gene PTK2B

The target of assay [17] is FES (Homo sapiens, UniProt P07332).
Assay [18] addresses T5, LZK (Homo sapiens, UniProt O43283).
T5 construct: gene MAP3K13

Assay [19] concerns the target TAOK2 (Homo sapiens, UniProt Q9UL54).
The target of assay [20] is HIPK4 (Homo sapiens, UniProt Q8NE63).
Assay [21] has as its target T6, ABL1(H396P)-nonphosphorylated (Homo sapiens, UniProt P00519, H396P).
T6 construct: nonphosphorylated

Assay [22] deals with T7, RSK1(Kin.Dom.1-N-terminal) (Homo sapiens, UniProt Q15418).
T7 construct: gene RPS6KA1; Kin.Dom.1-N-terminal

CSNK2A1, sequence (P68400 whole entry): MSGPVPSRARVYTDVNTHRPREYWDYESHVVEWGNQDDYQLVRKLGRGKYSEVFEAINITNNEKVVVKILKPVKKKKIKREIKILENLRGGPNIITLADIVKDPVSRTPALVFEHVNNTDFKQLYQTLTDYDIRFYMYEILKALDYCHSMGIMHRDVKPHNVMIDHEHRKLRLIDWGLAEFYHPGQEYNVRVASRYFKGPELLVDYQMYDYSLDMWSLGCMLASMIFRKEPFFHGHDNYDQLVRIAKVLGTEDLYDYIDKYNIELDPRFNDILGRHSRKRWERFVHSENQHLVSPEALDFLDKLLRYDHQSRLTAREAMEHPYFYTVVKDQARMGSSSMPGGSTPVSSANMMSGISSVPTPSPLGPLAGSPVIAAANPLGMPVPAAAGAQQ
EPHB2, sequence (P29323 whole entry): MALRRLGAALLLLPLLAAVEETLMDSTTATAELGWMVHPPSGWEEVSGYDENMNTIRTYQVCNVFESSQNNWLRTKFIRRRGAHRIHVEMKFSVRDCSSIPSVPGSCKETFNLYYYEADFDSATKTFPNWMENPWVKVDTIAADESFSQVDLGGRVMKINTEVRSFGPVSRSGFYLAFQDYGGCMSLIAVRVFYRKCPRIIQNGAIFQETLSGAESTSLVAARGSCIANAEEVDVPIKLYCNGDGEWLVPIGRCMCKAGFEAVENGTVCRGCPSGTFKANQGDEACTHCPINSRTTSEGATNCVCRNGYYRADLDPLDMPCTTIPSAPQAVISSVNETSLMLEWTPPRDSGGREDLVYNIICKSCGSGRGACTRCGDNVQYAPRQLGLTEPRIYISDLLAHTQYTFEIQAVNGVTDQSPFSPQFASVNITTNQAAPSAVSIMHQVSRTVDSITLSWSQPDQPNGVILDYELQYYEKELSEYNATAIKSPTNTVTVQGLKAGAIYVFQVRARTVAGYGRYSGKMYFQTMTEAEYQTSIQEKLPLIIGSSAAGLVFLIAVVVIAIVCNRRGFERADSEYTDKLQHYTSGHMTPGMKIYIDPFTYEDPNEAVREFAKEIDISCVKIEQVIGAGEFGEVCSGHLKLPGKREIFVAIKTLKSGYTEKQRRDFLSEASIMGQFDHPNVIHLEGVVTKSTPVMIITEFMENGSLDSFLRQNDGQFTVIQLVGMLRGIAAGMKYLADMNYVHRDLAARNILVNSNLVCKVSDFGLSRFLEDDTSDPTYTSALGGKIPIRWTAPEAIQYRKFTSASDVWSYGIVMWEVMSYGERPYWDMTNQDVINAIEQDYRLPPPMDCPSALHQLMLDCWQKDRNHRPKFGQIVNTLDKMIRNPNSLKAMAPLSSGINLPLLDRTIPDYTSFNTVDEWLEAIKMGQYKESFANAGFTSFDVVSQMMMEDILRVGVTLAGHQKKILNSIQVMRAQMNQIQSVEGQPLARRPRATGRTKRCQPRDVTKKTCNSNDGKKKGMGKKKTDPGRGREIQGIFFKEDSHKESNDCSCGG
FES, sequence (P07332 whole entry): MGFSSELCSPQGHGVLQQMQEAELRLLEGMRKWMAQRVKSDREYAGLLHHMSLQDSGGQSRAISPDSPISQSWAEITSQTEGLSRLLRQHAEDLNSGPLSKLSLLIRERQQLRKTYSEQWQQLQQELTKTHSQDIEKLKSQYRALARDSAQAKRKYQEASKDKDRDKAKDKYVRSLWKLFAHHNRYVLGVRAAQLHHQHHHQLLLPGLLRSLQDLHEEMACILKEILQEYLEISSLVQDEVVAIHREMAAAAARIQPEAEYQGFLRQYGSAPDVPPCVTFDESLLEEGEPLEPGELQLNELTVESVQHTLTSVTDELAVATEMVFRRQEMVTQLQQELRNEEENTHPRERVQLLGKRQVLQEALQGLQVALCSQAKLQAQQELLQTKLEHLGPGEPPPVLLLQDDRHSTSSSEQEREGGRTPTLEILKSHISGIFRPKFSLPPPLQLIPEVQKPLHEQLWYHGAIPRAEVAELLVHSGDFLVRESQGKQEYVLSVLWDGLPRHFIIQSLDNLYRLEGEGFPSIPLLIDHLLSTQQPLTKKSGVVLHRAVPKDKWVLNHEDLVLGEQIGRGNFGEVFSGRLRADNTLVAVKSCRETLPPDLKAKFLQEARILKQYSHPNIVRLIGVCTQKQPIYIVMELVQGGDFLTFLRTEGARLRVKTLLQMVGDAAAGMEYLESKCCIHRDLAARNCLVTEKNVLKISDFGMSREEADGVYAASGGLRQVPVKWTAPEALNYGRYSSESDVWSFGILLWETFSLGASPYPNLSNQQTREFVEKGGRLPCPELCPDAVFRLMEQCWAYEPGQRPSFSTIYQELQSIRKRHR
TAOK2, sequence (Q9UL54 whole entry): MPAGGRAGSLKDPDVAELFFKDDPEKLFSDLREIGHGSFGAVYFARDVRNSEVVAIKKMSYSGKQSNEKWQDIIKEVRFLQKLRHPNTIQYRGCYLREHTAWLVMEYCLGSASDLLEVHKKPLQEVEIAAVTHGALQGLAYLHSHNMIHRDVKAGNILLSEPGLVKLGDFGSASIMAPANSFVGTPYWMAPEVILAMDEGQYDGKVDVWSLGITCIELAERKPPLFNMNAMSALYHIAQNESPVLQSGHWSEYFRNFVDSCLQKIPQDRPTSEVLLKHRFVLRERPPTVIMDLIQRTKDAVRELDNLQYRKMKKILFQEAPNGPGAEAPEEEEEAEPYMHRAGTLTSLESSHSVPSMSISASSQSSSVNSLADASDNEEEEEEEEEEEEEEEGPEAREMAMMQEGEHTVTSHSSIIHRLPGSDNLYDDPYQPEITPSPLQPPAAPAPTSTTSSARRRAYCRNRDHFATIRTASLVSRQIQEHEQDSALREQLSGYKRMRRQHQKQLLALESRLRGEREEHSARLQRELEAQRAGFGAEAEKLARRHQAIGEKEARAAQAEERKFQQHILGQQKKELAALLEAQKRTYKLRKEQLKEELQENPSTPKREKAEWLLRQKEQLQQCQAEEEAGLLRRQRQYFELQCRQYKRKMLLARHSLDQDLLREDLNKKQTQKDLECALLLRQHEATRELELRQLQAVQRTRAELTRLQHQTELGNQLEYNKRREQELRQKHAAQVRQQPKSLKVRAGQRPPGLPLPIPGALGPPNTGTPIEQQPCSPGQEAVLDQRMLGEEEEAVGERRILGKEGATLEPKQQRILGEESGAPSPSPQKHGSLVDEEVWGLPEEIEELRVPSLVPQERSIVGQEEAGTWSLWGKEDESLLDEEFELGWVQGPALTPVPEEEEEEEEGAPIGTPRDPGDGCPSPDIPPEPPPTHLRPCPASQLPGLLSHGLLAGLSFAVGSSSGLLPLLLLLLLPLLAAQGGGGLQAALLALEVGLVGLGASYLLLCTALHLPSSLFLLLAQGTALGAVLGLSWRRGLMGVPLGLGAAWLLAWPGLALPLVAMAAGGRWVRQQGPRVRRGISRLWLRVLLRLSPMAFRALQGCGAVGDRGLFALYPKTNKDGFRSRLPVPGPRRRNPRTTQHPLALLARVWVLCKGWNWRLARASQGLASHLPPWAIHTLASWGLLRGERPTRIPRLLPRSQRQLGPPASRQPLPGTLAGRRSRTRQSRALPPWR
AURKA, sequence (O14965 whole entry): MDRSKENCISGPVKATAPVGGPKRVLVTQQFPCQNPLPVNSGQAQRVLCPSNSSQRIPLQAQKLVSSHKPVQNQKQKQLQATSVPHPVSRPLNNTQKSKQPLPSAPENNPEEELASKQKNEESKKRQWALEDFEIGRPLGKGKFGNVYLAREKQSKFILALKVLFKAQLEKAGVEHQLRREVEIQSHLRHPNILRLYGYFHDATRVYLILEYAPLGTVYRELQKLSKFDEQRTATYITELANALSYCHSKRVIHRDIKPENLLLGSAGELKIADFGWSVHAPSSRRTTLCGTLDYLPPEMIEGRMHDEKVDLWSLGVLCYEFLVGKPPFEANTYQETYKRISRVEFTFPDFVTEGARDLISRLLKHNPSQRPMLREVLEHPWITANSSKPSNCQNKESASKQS
CSNK1G2, sequence (P78368 whole entry): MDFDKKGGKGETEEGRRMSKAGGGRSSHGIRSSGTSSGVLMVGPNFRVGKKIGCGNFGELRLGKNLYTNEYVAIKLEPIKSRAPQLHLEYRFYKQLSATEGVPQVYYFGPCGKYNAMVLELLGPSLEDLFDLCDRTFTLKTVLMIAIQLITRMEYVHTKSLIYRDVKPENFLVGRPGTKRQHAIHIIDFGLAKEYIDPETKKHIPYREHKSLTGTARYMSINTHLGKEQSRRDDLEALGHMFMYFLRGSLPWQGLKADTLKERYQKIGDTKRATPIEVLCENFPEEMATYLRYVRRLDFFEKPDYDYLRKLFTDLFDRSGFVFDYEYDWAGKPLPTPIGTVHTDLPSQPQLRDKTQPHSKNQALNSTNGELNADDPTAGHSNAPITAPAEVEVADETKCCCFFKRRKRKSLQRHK
SBK1, sequence (Q52WX2 whole entry): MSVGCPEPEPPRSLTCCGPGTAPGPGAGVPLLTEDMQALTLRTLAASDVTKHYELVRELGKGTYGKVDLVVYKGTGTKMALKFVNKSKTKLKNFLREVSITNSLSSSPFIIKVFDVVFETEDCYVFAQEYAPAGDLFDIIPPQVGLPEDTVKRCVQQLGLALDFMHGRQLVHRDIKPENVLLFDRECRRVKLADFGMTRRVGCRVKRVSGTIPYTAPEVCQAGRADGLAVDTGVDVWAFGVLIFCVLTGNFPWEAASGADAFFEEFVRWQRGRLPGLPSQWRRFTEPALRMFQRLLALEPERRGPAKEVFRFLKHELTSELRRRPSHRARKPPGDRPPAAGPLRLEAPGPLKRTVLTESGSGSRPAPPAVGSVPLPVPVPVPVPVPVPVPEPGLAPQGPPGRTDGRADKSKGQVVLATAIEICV

With `COc1ccc(-c2cnccc2-c2cnc(NC(=O)C(C)C)s2)c(C(F)(F)F)c1` [CRT0105446, N-{5-[3-(4-Methoxy-2-trifluoromethyl-phenyl)-pyridin-4-yl]-hiazol-2-yl}-isobutyramide], the remaining binding at 10 µM in assay [1] came to 100%; in [2], 49%; in assay [3], 100%; in assay [4] it was 84%; in assay [5], 55%; in assay [6], 100%. Moreover, the remaining binding at 10 µM in [7] was 81%; in assay [8] it was 100%; in assay [9], 100%; in assay [10], 100%; in [11], 100%; in assay [12], 100%. The remaining binding at 10 µM in [13] came to 95%; in assay [14], 90%; in assay [15] it was 100%; in assay [16], 100%; in [17], 87%; in assay [18], 100%. Moreover, the remaining binding at 10 µM was 76% in assay [19], 75% in [20], 71% in [21] and 56% in assay [22].
As for `Cc1ccc(-c2cnccc2-c2cnc(Nc3ccc(O)cc3)s2)c(Cl)c1` [CRT0105950, 4-{5-[3-(2-Chloro-4-methyl-phenyl)-pyridin-4-yl]-thiazol-2-ylamino}-phenol], the remaining binding at 10 µM in assay [1] is 49%; in assay [2] it was 22%; in assay [3] it was 86%; in assay [4] it was 6.4%; in assay [5], 30%; in assay [6], 81%. The remaining binding at 10 µM in assay [7] was 74%; in assay [8] it was 78%; in assay [9], 97%; in assay [10] it was 18%; in assay [11], 100%; in assay [12], 79%. The remaining binding at 10 µM in assay [13] is 60%; in assay [14], 17%; in [15], 90%; in assay [16] it was 2.2%; in [17] it was 93%; in assay [18], 96%. For the same compound, the remaining binding at 10 µM in [19] worked out at 21%; in assay [20], 16%; in [21], 27%; in assay [22] it was 0.05%.
